Earlier results in patent publication EP0228223A2, “Non-irritating suprofen solution” (Cilag AG, priority 1985, dated 1987).
“Also recorded” adds a separate entry of the source.

How the values were obtained:
[1] = preparation swallowed; appears only seconds after swallowing, disappears within minutes

CC(C(=O)O)c1ccc(C(=O)c2cccs2)cc1 (stereo not shown) [Suprofen, p-(2-thenoyl)hydratropic acid]
solubility in organic solvents and base (methanol, ethanol, chloroform, acetone, polyethylene glycol and 1.0 N sodium hydroxide): freely soluble | solubility in water (water): poorly soluble; also recorded: very slightly soluble | irritation in the throat [1]: very characteristic irritation

CC(C(=O)O)c1ccc(C(=O)c2cccs2)cc1 (stereo not shown) [suprofen-sodium]
irritation in the throat [1]: irritation effect occurs
